Twelve compounds from the supplement of paper PMC11061612 can be followed below.

SMILES strings stand for the structures.

Common to all, as to experiment: Bliss excess, mean over the matrix (fraction); higher = more synergy
One assay relates to 8-MG-BA (Glioblastoma). Put shortly: (§1)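 After 24 hours at 37°C and 5% CO2 in 1536-well plates, cells in DMEM/F12 or RPMI plus 10% FBS received two-drug dose matrices for 72 hours. Viability came from CellTiter-Glo 2.0 luminescence and was scaled as inhibition, anchored at 0 by vehicle wells and at 1 by blank wells. Combination Emax is taken as the second-highest inhibition in the matrix, and Bliss excess as the observed combination effect less EA + EB − EA·EB, with EA and EB the single-agent effects.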

The subject of the next assay is ARH-77 (Non-Cancerous). The essentials: as §1
The next assay concerns GI-ME-N (Neuroblastoma). The essentials: as §1
Assay [1] has as its system NCI-H1693 (Lung Adenocarcinoma). Put shortly:
as §1

Assay [2] deals with PANC-10-05 (Pancreatic Carcinoma). Put shortly: as §1
The next assay concerns U-2-OS (Osteosarcoma). The essentials: as §1

With `Cc1c2c(nn1C)CSCc1cc(n(C)n1)CSc1cc(c3ccccc3c1)OCCCc1c(C(=O)O)n(C)c3c-2c(Cl)ccc13` [AZD5991] + C[C@@H](Nc1cc(F)cc(F)c1)c1cc(C(=O)N(C)C)cc2c(=O)cc(N3CCOCC3)oc12 [AZD8186] (first compound max 1 µM, 7x7, partner max 3 µM), the Bliss excess in the assay with 8-MG-BA (Glioblastoma) is 0.0956; in the assay with ARH-77 (Non-Cancerous), -0.0404; in the assay on GI-ME-N (Neuroblastoma) it was -0.0631; in assay [1], -0.0461; in assay [2], -0.0473; in the assay with U-2-OS (Osteosarcoma), -0.0073.

`Cc1c2c(nn1C)CSCc1cc(n(C)n1)CSc1cc(c3ccccc3c1)OCCCc1c(C(=O)O)n(C)c3c-2c(Cl)ccc13` [AZD5991] + Cc1cc2ncnn2cc1Nc1ncc2c(n1)n(C1CCOCC1)c(=O)n2C [AZD7648] (first compound max 1 µM, 7x7, partner max 10 µM): the Bliss excess in the assay on 8-MG-BA (Glioblastoma) is 0.0218; in the assay on ARH-77 (Non-Cancerous), -0.024; in the assay on GI-ME-N (Neuroblastoma) it was -0.0863; in assay [1], -0.026; in assay [2], -0.0758; with U-2-OS (Osteosarcoma) it was -0.0318.

In the case of `Cc1c2c(nn1C)CSCc1cc(n(C)n1)CSc1cc(c3ccccc3c1)OCCCc1c(C(=O)O)n(C)c3c-2c(Cl)ccc13` [AZD5991] + Cn1cnc2c(F)c(Nc3ccc(Br)cc3Cl)c(C(=O)NOCCO)cc21 [Selumetinib] (first compound max 1 µM, 7x7, partner max 3 µM), the Bliss excess is 0.098 in the assay on 8-MG-BA (Glioblastoma); -0.0069 with ARH-77 (Non-Cancerous); -0.06 in the assay on GI-ME-N (Neuroblastoma); 0.0314 in assay [1]; -0.0186 in assay [2]; 0.0109 in the assay on U-2-OS (Osteosarcoma).

As to `C[C@@H]1COCCN1c1cc(C2([S@](C)(=N)=O)CC2)nc(-c2ccnc3[nH]ccc23)n1` [AZD6738] + O=C(c1cc(Cc2n[nH]c(=O)c3ccccc23)ccc1F)N1CCN(C(=O)C2CC2)CC1 [Olaparib] (first compound max 10 µM, 7x7, partner max 10 µM), the Bliss excess in the assay with 8-MG-BA (Glioblastoma) was 0.0521; in the assay on ARH-77 (Non-Cancerous), -0.0297; with GI-ME-N (Neuroblastoma), -0.0252; in assay [1] it was -0.0082; in assay [2] it was -0.0133; in the assay with U-2-OS (Osteosarcoma) it was 0.0257.

Consider `Cc1cc2ncnn2cc1Nc1ncc2c(n1)n(C1CCOCC1)c(=O)n2C` [AZD7648] + C=CCn1c(=O)c2cnc(Nc3ccc(N4CCN(C)CC4)cc3)nc2n1-c1cccc(C(C)(C)O)n1 [AZD1775] (first compound max 10 µM, partner max 1 µM), for which the Bliss excess was -0.0114 in the assay on 8-MG-BA (Glioblastoma); -0.0575 in the assay on ARH-77 (Non-Cancerous); 0.0213 in the assay on GI-ME-N (Neuroblastoma); 0.0055 in assay [1]; -0.0429 in assay [2]; 0.0232 in the assay with U-2-OS (Osteosarcoma).

For the compound `Cc1cc2ncnn2cc1Nc1ncc2c(n1)n(C1CCOCC1)c(=O)n2C` [AZD7648] + CCN(CCO)CCCOc1ccc2c(Nc3cc(CC(=O)Nc4cccc(F)c4)[nH]n3)ncnc2c1 [AZD2811] (first compound max 10 µM, 7x7, partner max 1 µM), the Bliss excess in the assay on 8-MG-BA (Glioblastoma) is 0.0664; in the assay on ARH-77 (Non-Cancerous), 0.0348; in the assay with GI-ME-N (Neuroblastoma), 0.0032; in assay [1], -0.0059; in assay [2], -0.0341; in the assay on U-2-OS (Osteosarcoma), 0.0294.

Turning to `Cc1cc2ncnn2cc1Nc1ncc2c(n1)n(C1CCOCC1)c(=O)n2C` [AZD7648] + CN(C)CCCOc1ccc(-c2ccc3ncc4c(c3c2)n(C2CCOCC2)c(=O)n4C)cn1 [AZD0156] (first compound max 10 µM, 7x7, partner max 1 µM), the Bliss excess is 0.029 in the assay on 8-MG-BA (Glioblastoma); -0.049 with ARH-77 (Non-Cancerous); 0.0015 with GI-ME-N (Neuroblastoma); 0.0173 in assay [1]; -0.0059 in assay [2]; 0.0103 with U-2-OS (Osteosarcoma).

Take `Cc1cc2ncnn2cc1Nc1ncc2c(n1)n(C1CCOCC1)c(=O)n2C` [AZD7648] + C[C@@H]1COCCN1C2=NC(=NC(=C2)C3(CC3)[S@](=N)(=O)C)C4=C5C=CNC5=NC=C4 [AZD6738] (first compound max 10 µM, 7x7, partner max 10 µM): the Bliss excess is 0.0602 in the assay on 8-MG-BA (Glioblastoma); -0.0463 in the assay with ARH-77 (Non-Cancerous); 0.0346 in the assay with GI-ME-N (Neuroblastoma); 0.0177 in assay [1]; 0.0487 in assay [2]; 0.0173 in the assay on U-2-OS (Osteosarcoma).

For `Cc1cc2ncnn2cc1Nc1ncc2c(n1)n(C1CCOCC1)c(=O)n2C` [AZD7648] + O=C(c1cc(Cc2n[nH]c(=O)c3ccccc23)ccc1F)N1CCN(C(=O)C2CC2)CC1 [Olaparib] (first compound max 10 µM, 7x7, partner max 10 µM), the Bliss excess in the assay with 8-MG-BA (Glioblastoma) is -0.0184; in the assay on ARH-77 (Non-Cancerous), 0.0393; in the assay with GI-ME-N (Neuroblastoma), -0.0382; in assay [1] it was -0.0299; in assay [2], -0.0426; in the assay on U-2-OS (Osteosarcoma) it was -0.0136.

Take `NC1(C(=O)N[C@@H](CCO)c2ccc(Cl)cc2)CCN(c2ncnc3[nH]ccc23)CC1` [Capivasertib] + CC(=O)c1c(C)c2cnc(Nc3ccc(N4CCNCC4)cn3)nc2n(C2CCCC2)c1=O [Palbociclib] (first compound max 10 µM, 7x7, partner max 10 µM): the Bliss excess is -0.0501 in the assay on 8-MG-BA (Glioblastoma); -0.0211 in the assay with ARH-77 (Non-Cancerous); -0.0823 in the assay with GI-ME-N (Neuroblastoma); -0.0631 in assay [1]; -0.0526 in assay [2]; 0.0197 in the assay on U-2-OS (Osteosarcoma).

`NC1(C(=O)N[C@@H](CCO)c2ccc(Cl)cc2)CCN(c2ncnc3[nH]ccc23)CC1` [Capivasertib] + CC(C)n1c(=O)n(C)c2cnc3cc(F)c(-c4ccc(OCCCN5CCCCC5)nc4)cc3c21 [AZD1390] (first compound max 10 µM, 7x7, partner max 0.3 µM): the Bliss excess is -0.0557 in the assay with 8-MG-BA (Glioblastoma); -0.0509 with ARH-77 (Non-Cancerous); -0.0993 in the assay on GI-ME-N (Neuroblastoma); -0.111 in assay [1]; -0.101 in assay [2]; -0.0453 with U-2-OS (Osteosarcoma).

In the case of `NC1(C(=O)N[C@@H](CCO)c2ccc(Cl)cc2)CCN(c2ncnc3[nH]ccc23)CC1` [Capivasertib] + CCN(CCO)CCCOc1ccc2c(Nc3cc(CC(=O)Nc4cccc(F)c4)[nH]n3)ncnc2c1 [AZD2811] (first compound max 10 µM, 7x7, partner max 1 µM), the Bliss excess with 8-MG-BA (Glioblastoma) is 0.0289; in the assay with ARH-77 (Non-Cancerous) it was -0.0156; in the assay on GI-ME-N (Neuroblastoma), -0.0557; in assay [1], -0.0446; in assay [2] it was -0.0943; in the assay with U-2-OS (Osteosarcoma), -0.001.
